Test results reported in ChEMBL document CHEMBL3885861, “Open TG-GATES”.

Organism: Rattus norvegicus
Test: Open TG-GATES - Regimen: Single
Format: toxicity, organism-based, Sprague-Dawley
Design: regimen Single, gender Male, age 6 weeks
Conditions: in vivo, po, 0 mg/kg, route gavage, dose level Control; for APTT / Bas / Eos / Fbg / Hb / Ht / Lym / MCH / MCHC / MCV / Mono / Neu / PT / Plat / RBC / Ret / WBC: tissue Blood; for KIDNEY_L / KIDNEY_R / KIDNEY_TOTAL: tissue Kidney; for LIVER: tissue Liver; for A/G / ALP / ALT / AST / BUN / CRE / Ca / Cl / DBIL / GLC / IP / K / LDH / Na / PL / RALB / TBIL / TC / TG / TP / gamma-GTP: tissue Plasma

**Q.** Which results are given for `CC(=O)Oc1cc(C(C)C)c(OCCN(C)C)cc1C` [MOXISYLYTE]?
**A.** TERMINAL_BW (3 h): 216.6 g; APTT (3 h): 21.3 s; Bas (3 h): 0%; Eos (3 h): 1%; Fbg (3 h): 307.8 mg/dL; Hb (3 h): 13 g/dL; Ht (3 h): 37.8%; Lym (3 h): 76.6%; MCH (3 h): 21.2 pg; MCHC (3 h): 34.4%; MCV (3 h): 61.6 fL; Mono (3 h): 2.4%; Neu (3 h): 19.2%; PT (3 h): 16.1 s; Plat (3 h): 118.3 x10_4/uL; RBC (3 h): 614.4 x10_4/ul; Ret (3 h): 8.8%; WBC (3 h): 111.5 x10_2/uL; KIDNEY_L (3 h): 0.9 g; KIDNEY_R (3 h): 0.9 g; KIDNEY_TOTAL (3 h): 1.9 g; LIVER (3 h): 9.9 g; A/G (3 h): 1.3; ALP (3 h): 1431.6 IU/L; ALT (3 h): 41 IU/L; AST (3 h): 73.6 IU/L; BUN (3 h): 14.6 mg/dL; CRE (3 h): 0.2 mg/dL; Ca (3 h): 10.8 mg/dL; Cl (3 h): 106 meq/L; DBIL (3 h): 0.004 mg/dL; GLC (3 h): 186.8 mg/dL; IP (3 h): 7.7 mg/dL; K (3 h): 4.3 meq/L; LDH (3 h): 263.8 IU/L; Na (3 h): 141.6 meq/L; PL (3 h): 137.4 mg/dL; RALB (3 h): 3 g/dL; TBIL (3 h): 0.02 mg/dL; TC (3 h): 79.8 mg/dL; TG (3 h): 57 mg/dL; TP (3 h): 5.3 g/dL; gamma-GTP (3 h): 1 IU/L; TERMINAL_BW (6 h): 204.4 g; APTT (6 h): 20.5 s; Bas (6 h): 0%; Eos (6 h): 1%; Fbg (6 h): 338.6 mg/dL; Hb (6 h): 13.7 g/dL; Ht (6 h): 39.5%; Lym (6 h): 80.2%; MCH (6 h): 21.4 pg; MCHC (6 h): 34.6%; MCV (6 h): 61.9 fL; Mono (6 h): 1.8%; Neu (6 h): 16.6%; PT (6 h): 16.4 s; Plat (6 h): 129.2 x10_4/uL; RBC (6 h): 638.2 x10_4/ul; Ret (6 h): 8.1%; WBC (6 h): 99.5 x10_2/uL; KIDNEY_L (6 h): 0.9 g; KIDNEY_R (6 h): 1 g; KIDNEY_TOTAL (6 h): 1.9 g; LIVER (6 h): 8.8 g; A/G (6 h): 1.3; ALP (6 h): 1524.2 IU/L; ALT (6 h): 40.2 IU/L; AST (6 h): 76.4 IU/L; BUN (6 h): 10.8 mg/dL; CRE (6 h): 0.1 mg/dL; Ca (6 h): 10.6 mg/dL; Cl (6 h): 106.6 meq/L; DBIL (6 h): 0.024 mg/dL; GLC (6 h): 183.4 mg/dL; IP (6 h): 8.9 mg/dL; K (6 h): 4.4 meq/L; LDH (6 h): 273 IU/L; Na (6 h): 141.4 meq/L; PL (6 h): 125.4 mg/dL; RALB (6 h): 3.1 g/dL; TBIL (6 h): 0.016 mg/dL; TC (6 h): 71.4 mg/dL; TG (6 h): 47.8 mg/dL; TP (6 h): 5.4 g/dL; gamma-GTP (6 h): 1.2 IU/L; TERMINAL_BW (9 h): 211.6 g; APTT (9 h): 20.8 s; Bas (9 h): 0%; Eos (9 h): 1%; Fbg (9 h): 295.6 mg/dL; Hb (9 h): 13.2 g/dL; Ht (9 h): 38.3%; Lym (9 h): 82.2%; MCH (9 h): 21.6 pg; MCHC (9 h): 34.4%; MCV (9 h): 62.7 fL; Mono (9 h): 2%; Neu (9 h): 14.8%; PT (9 h): 16.1 s; Plat (9 h): 114.1 x10_4/uL; RBC (9 h): 611 x10_4/ul; Ret (9 h): 8.2%; WBC (9 h): 120.9 x10_2/uL; KIDNEY_L (9 h): 1 g; KIDNEY_R (9 h): 1 g; KIDNEY_TOTAL (9 h): 1.9 g; LIVER (9 h): 8.9 g; A/G (9 h): 1.3; ALP (9 h): 1372.2 IU/L; ALT (9 h): 36.8 IU/L; AST (9 h): 72 IU/L; BUN (9 h): 12.8 mg/dL; CRE (9 h): 0.1 mg/dL; Ca (9 h): 10.5 mg/dL; Cl (9 h): 106.6 meq/L; DBIL (9 h): 0.018 mg/dL; GLC (9 h): 184.8 mg/dL; IP (9 h): 9.6 mg/dL; K (9 h): 4.5 meq/L; LDH (9 h): 214 IU/L; Na (9 h): 142.2 meq/L; PL (9 h): 133.2 mg/dL; RALB (9 h): 3 g/dL; TBIL (9 h): 0.014 mg/dL; TC (9 h): 71.8 mg/dL; TG (9 h): 65.4 mg/dL; TP (9 h): 5.4 g/dL; gamma-GTP (9 h): 1 IU/L; TERMINAL_BW (24 h): 218.4 g; APTT (24 h): 20.3 s; Bas (24 h): 0%; Eos (24 h): 0.8%; Fbg (24 h): 285.6 mg/dL; Hb (24 h): 13.6 g/dL; Ht (24 h): 39.3%; Lym (24 h): 79.2%; MCH (24 h): 21.5 pg; MCHC (24 h): 34.5%; MCV (24 h): 62.3 fL; Mono (24 h): 2.2%; Neu (24 h): 17.4%; PT (24 h): 16.2 s; Plat (24 h): 118.6 x10_4/uL; RBC (24 h): 631.4 x10_4/ul; Ret (24 h): 7.8%; WBC (24 h): 102.9 x10_2/uL; KIDNEY_L (24 h): 1 g; KIDNEY_R (24 h): 1 g; KIDNEY_TOTAL (24 h): 1.9 g; LIVER (24 h): 10 g; A/G (24 h): 1.2; ALP (24 h): 1643.4 IU/L; ALT (24 h): 44.8 IU/L; AST (24 h): 78.2 IU/L; BUN (24 h): 18.4 mg/dL; CRE (24 h): 0.2 mg/dL; Ca (24 h): 10.9 mg/dL; Cl (24 h): 106.8 meq/L; DBIL (24 h): 0 mg/dL; GLC (24 h): 189 mg/dL; IP (24 h): 6.6 mg/dL; K (24 h): 4.3 meq/L; LDH (24 h): 251.4 IU/L; Na (24 h): 142 meq/L; PL (24 h): 151.4 mg/dL; RALB (24 h): 3.1 g/dL; TBIL (24 h): 0.006 mg/dL; TC (24 h): 79.8 mg/dL; TG (24 h): 89 mg/dL; TP (24 h): 5.7 g/dL; gamma-GTP (24 h): 1.2 IU/L
